From BindingDB's records for doi:10.1021/jm300752n (Emory University, 2012)

Experiment: Inhibition of P300 CH1 domain-mediated HIF1 transcriptional activity in human LN229-V6R cells assessed as reduction in luciferase activity incubated for 1 hr under normoxia followed by 24 hrs under hypoxia by reporter gene assay

IC50, 5 µM:
CC(C)CN(Cc1ccc2c(c1)C=CC(C)(C)O2)S(=O)(=O)c1nccs1
CC(C)CN(Cc1ccc2c(c1)C=CC(C)(C)O2)S(=O)(=O)c1nccn1C
COc1cc(CN(C(C)C)S(=O)(=O)c2ccccn2)cc2c1OC(C)(C)C=C2
CC(C)CN(Cc1ccc2c(c1)C=CC(C)(C)O2)S(=O)(=O)c1ccccn1
